Where two headings read alike, the source gives them in different places.
Experiments:
OXA-48 [1] = target: T1, OXA-48 (Klebsiella pneumoniae, UniProt Q6XEC0); assay: inhibition of purified recombinant enzyme; type: biochemical; details: read-out: Class D OXA-48
T1 construct: purified recombinant; class D serine beta-lactamase; construct details only in ESI

KPC-2 [2] = target: T2, KPC-2 (Klebsiella pneumoniae, UniProt Q9F663); assay: inhibition of purified recombinant enzyme; type: biochemical; details: read-out: Class A KPC-2
T2 construct: purified recombinant; class A serine beta-lactamase; construct details only in ESI
T2 sequence (Q9F663 25-293 limits assumed): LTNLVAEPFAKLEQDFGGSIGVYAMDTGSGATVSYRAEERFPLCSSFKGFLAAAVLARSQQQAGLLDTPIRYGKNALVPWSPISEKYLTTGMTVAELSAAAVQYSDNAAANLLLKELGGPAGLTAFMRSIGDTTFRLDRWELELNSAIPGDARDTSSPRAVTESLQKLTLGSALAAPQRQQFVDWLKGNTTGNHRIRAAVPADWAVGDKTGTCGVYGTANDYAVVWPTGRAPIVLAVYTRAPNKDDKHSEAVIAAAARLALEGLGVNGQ

KPC-2 [3] = target: T2, KPC-2; assay: biochemical; design: inhibition of purified recombinant beta-lactamases, IC50; details: read-out: Class A KPC-2
OXA-48 [4] = target: T1, OXA-48; assay: biochemical; design: inhibition of purified recombinant beta-lactamases, IC50; details: read-out: Class D OXA-48
Class B1 NDM-1 [5] = target: T3, Class B1 NDM-1 (Klebsiella pneumoniae, UniProt C7C422); assay: biochemical; design: inhibition of purified recombinant beta-lactamases, IC50
T3 construct: gene blaNDM-1
T3 sequence (C7C422 whole entry, looked up): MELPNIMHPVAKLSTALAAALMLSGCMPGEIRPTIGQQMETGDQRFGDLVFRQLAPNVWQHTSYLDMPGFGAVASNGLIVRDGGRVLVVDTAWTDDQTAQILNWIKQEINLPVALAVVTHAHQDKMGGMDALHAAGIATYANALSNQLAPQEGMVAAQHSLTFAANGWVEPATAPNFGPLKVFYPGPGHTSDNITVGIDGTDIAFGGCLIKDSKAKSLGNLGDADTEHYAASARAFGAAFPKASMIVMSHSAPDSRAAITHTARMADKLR

Class B1 NDM-1 [6] = target: T3, Class B1 NDM-1; assay: biochemical; design: inhibition of purified recombinant beta-lactamases, IC50 from dose-response curves; read-out not stated in excerpts
Text: This selectivity was mostly, but not exclusively observed for the other β-lactamases, substantial inhibition of which was more sporadic than for KPC-2 (Table 2). The KPC-2 stereoselectivity for the benzoxaborole derivatives is interesting since the penicillin substrates of some of the β-lactamases have a (2S) C-3 carbon adjacent to their C-2 carboxylate. The difference in results for the (R)- and (S)-benzoxaboroles may reflect different distances between their carboxylate and electrophilic boron; the analogous carboxylate to β-lactam distance is proposed to be important with respect to antibacterial activity.[11]

T1 sequence (Q6XEC0 23-265 limits assumed): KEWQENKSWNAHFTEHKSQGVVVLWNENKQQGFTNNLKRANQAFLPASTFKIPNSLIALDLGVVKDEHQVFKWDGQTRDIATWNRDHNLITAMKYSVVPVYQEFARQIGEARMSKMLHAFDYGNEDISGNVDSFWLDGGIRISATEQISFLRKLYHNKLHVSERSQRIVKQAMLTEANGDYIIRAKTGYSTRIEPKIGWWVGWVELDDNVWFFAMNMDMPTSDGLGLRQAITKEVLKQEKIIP

SMILES	IC50 (OXA-48 [1]) [µM]	IC50 (KPC-2 [2]) [µM]	IC50 (KPC-2 [3]) [µM]	IC50 (OXA-48 [4]) [µM]	IC50 (Class B1 NDM-1 [5]) [µM]	IC50 (Class B1 NDM-1 [6]) [µM]
C=C(C(=O)O)[C@@H]1OB(O)c2ccccc21 [(R)-4a]	15.8	3.08				
C=C(C(=O)O)[C@@H]1OB(O)c2ccc(OC)cc21 [(R)-4c]	42.5	7.62				
C=C(C(=O)O)[C@@H]1OB(O)c2ccc(F)cc21 [(R)-4f]	10.1	3.87				
C=C(C(=O)O)[C@@H]1OB(O)c2cc(F)ccc21 [(R)-4j]	5.97	0.97				
C=C(C(=O)O)[C@@H]1OB(O)c2ccc(Oc3ccc(C)cc3)cc21 [(R)-4m]			3.58	6.24	352	
C=C(C(=O)O)[C@@H]1OB(O)c2ccc(Oc3cccc(C)c3)cc21 [(R)-4n]			2.11	4.1	110	
C=C(C(=O)O)[C@@H]1OB(O)c2ccc(Oc3ccc(C(F)(F)F)cc3)cc21 [(R)-4o]			3.76	7.73	> 600	
C=C(C(=O)O)[C@@H]1OB(O)c2ccc(OCc3ccccc3)cc21 [(R)-4p]			1.17	7.55	> 300	
C=C(C(=O)O)[C@@H]1OB(O)c2cc(Oc3ccc(OC)cc3)ccc21 [(R)-4q]	0.43	0.07				
C=C(C(=O)O)[C@@H]1OB(O)c2cc(Oc3ccc([N+](=O)[O-])cc3)ccc21 [(R)-4r]			0.12	2.64	308	
C=C(C(=O)O)[C@@H]1OB(O)c2cc(Oc3ccc(Cl)cc3)ccc21 [(R)-4s]			0.27	0.85	146	
C=C(C(=O)O)[C@@H]1OB(O)c2cc(OCc3ccccc3)ccc21 [(R)-4t]			0.55	1.33	382	
C=C(C(=O)O)[C@H]1OB(O)c2ccccc21 [(S)-4a]	14.1	0.48				> 600
C=C(C(=O)O)[C@H]1OB(O)c2ccc(OC)cc21 [(S)-4c]	34.1	0.54				
C=C(C(=O)O)[C@H]1OB(O)c2ccc(F)cc21 [(S)-4f]	14.7	0.34				
C=C(C(=O)O)[C@H]1OB(O)c2cc(F)ccc21 [(S)-4j]	12	0.49				
C=C(C(=O)O)[C@H]1OB(O)c2cc(Oc3ccc(OC)cc3)ccc21 [(S)-4q]	0.74	0.01				
NC(=O)[C@@H]1CC[C@@H]2CN1C(=O)N2OS(=O)(=O)O [Avibactam]						> 600

From PMC8330636, “Design and enantioselective synthesis of 3-(α-acrylic acid) benzoxaboroles to combat carbapenemase resistance” (Chemical Communications (Cambridge, England), 2021)
